In EP2974743B1, “CYCLODEXTRIN CARRIER-BASED ARTEANNUIN COMPOUND CONJUGATE AND PREPARING METHOD THEREOF” (KPC Pharmaceuticals, Inc., priority 2012, dated 2014):

Key:
solubility in water = type: physicochemical; conditions: in words
From the text: Also, the cyclodextrin carrier-based arteannuinoid compound is absorbed in merely a small amount when passing through stomach and small intestine of a human body, which is mainly absorbed by the large intestine, with a property of releasing in straight cecum. Therefore, the cyclodextrin carrier-based arteannuinoid compound according to the present disclosure can effectively enter the body of a patient, improving the bioavailability.

[1] = system: mouse hepatocarcinoma H22; conditions: 300 mg/kg by gavage; cited from earlier work
HCT116 = assay: MTT assay, tumor cell growth inhibition; type: cell-based; conditions: human rectal cancer cells HCT116, 48h culture with compound
Procedure: (§1) For example, 180 µl suspension of human rectal cancer cells HCT116, Lovo, SW480 and HT29 (at a concentration of 4×10^4/mL) was added to a 96 well plate, and pre-cultured under 5% CO2, 37°C and saturated moisture for 24h. 150 µl medium was replaced, and 20 µl medium containing molecular assembly at different concentrations was added. The cells were cultured for another 48h, with the medium free of a sample as a negative control, and a medium containing camptothecin, oxaliplatin or fluorouracil at different concentrations as positive controls. MTT assay was used to determine the OD value, and the growth inhibition rate was calculated. The inhibition of compounds at high, medium and low concentration on the tumor cell proliferation was observed. All the experiments above were performed in triplet. The results of in vitro experiment of the arteannuin cyclodextrin conjugate on human rectum and caecum cancer cell are shown in table 1. Table 1. The comparison of IC50 values (µM) for the cyclodextrin carrier-based arteannuinoid compound conjugate according to the present disclosure and some arteannuinoid compounds in several rectal cancer cells.

HT 90 = assay: MTT assay, tumor cell growth inhibition; type: cell-based; conditions: human rectal cancer cells HT 90 (text: HT29), 48h culture with compound
Procedure: as §1

Lovo = assay: MTT assay, tumor cell growth inhibition; type: cell-based; conditions: human rectal cancer cells Lovo, 48h culture with compound
Procedure: as §1

SW480 = assay: MTT assay, tumor cell growth inhibition; type: cell-based; conditions: human rectal cancer cells SW480, 48h culture with compound
Procedure: as §1

Row | Compound | solubility in water (solubility in water) | anti-tumor rate [1] | IC50 (HCT116) [µM] | IC50 (HT 90) [µM] | IC50 (Lovo) [µM] | IC50 (SW480) [µM]
1 | C[C@H]1[C@H](OC(=O)CCC(=O)O)O[C@@H]2O[C@@]3(C)CC[C@H]4[C@H](C)CC[C@@H]1[C@@]24OO3 [artesunate] | almost insoluble in water | above 40% |  |  |  | 
2 | mono-6-artesunate-β-cyclodextrin conjugate [Example 1] |  |  | 0.84 | 5.3 | 0.72 | 3.92
